# In patent US6723897B2, “Methods for controlling gibberellin levels” (Monsanto Technology, LLC, priority 1998, dated 2004):
# Tests used:
# [1] = tested on: wild-type soybean line A3237; assay: Experiment II second greenhouse test, seed imbibition, wild-type soybean; assay type: in vivo, Glycine max; details: 0.25 mg/ml; seeds imbibed 6 hours
# Description: (The compounds are tested in Experiment I at only one concentration, i.e., 0.25 mg/ml). Test tubes contained […] of ethanol solution per tube. Final volumes are made up to 30 ml with deionized water. After shaking, the treatment solutions (15 ml each) are transferred to each of two 50 ml test tubes. […] Twenty seeds are used in each treatment. Dry seed, ethanol/water-imbibed seed (1% ethanol in water, v/v), and water-imbibed seeds are included as controls. Seeds are imbibed for 6 hours in the test solutions, then planted in bread pans containing Metromix 350 (The Scotts Company, Marysville, Ohio), and covered with 0.5″ Metro-mix. Covered pans are transferred to the greenhouse and subirrigated. Illumination is at a light intensity of 300-400 μmolm^−2s^−1 photosynthetic photon flux; 16 hours light/8 hours dark. Subsequent waterings are also through sub-irrigation until the test is terminated three weeks later. Observations included the number of dwarf, intermediate, and tall plants; plant height; uniformity of rescue; and any visual effects. Digital photographs are also taken.
# [2] = tested on: non-transgenic soybean line A4922; assay: Field trial of seed coatings under soil compaction / different soils, wild-type soybean; assay type: in vivo, Glycine max; details: for Count (emergence) / Height (total plant height): A4922
# Description: The second trial (data reported in Tables 22-24) tested the precursors under conditions of soil compaction.
# As noted above, the second trial tested the noted precursors under conditions of soil compaction. These experiments are performed in the same manner as in the first trial, except that the soil is compacted with an all-terrain vehicle.
# “Height” equals total plant height in cm.
# [3] = tested on: wild-type soybean line A4922; assay: Field trial of seed coating application rates, wild-type soybean
# Description: GA3, GA3-3-acetate, GA5, GA9, and GA12 are evaluated in further field trials. […] The objectives of these tests are: 1) to determine if seed coatings, as compared to imbibition, of GA compounds facilitate rescue of constitutively GA-deficient transgenic dwarf soybeans (transgenic lines 719−2 plus 719+17) without causing elongation of wild-type soybeans (line A4922), and 2) to determine the seed treatment rate ranges for each of the selected GA compounds that would provide rescue of constitutively GA-deficient transgenic dwarf soybeans (transgenic lines 719−2 plus 719+17) without causing elongation of wild-type soybeans (line A4922).
# Seeds are treated with GA3, GA5, GA9, GA12, and GA3-3-acetate at rates of 0, 0.1, 1, 10, and 100 μg/seed. These GA compounds are applied to the seeds using a Hege 11 seed treater (Hans-Ulrich Hege GmbH & Co., Waldenburg, Germany); 100% acetone is used as the carrier solvent. The amount of liquid introduced into the seed treater is six fluid ounces/100 lbs seed rate. In addition, GA12 is tested at 50 μg/seed. The untreated control (UTC) consisted of dry, untreated seeds. Seeds of constitutively GA-deficient transgenic dwarf soybean line 719 and wild-type A4922 are sown in both light and heavy soil. The planting depth is 0.5 to 1 inch (1.27 to 2.54 cm); watering is via drip irrigation. The experiment is carried out in three repetitions, using 25 seeds/plot (one five foot (152.4 cm) long row) for line 719, and 75 seeds/plot (two eight foot (243.8 cm) rows) for line A4922. Observations included total emergence, number of dwarfs not rescued, uniformity in plant height, average plant height, visual notes, and digital photos.
# In all the experiments reported in Tables 17-24, treatments are replicated three times in a randomized block design. Data are analyzed using LSD (least significant difference) 0.05 probability using the PRM 5.0 Statistical Analysis Program (SAS Institute, North Carolina).
# [4] = tested on: transgenic line 719 soybean; assay: Field trial of seed coatings under soil compaction / different soils, GA-deficient soybean; assay type: in vivo, Glycine max; details: for Count (emergence) / Dwarfs (number of dwarfs not rescued) / Dwarfs (number not rescued): Line 719
# [5] = Heavy soil - Loose, target rate 1.0 μg/seed, Table 23
# [6] = Heavy soil - Loose, target rate 10.0 μg/seed, Table 23
# [7] = Heavy soil - Loose, target rate 40.0 μg/seed, Table 23
# [8] = Heavy soil - compacted, target rate 1.0 μg/seed, Table 23
# [9] = Heavy soil - compacted, target rate 10.0 μg/seed, Table 23
# [10] = Heavy soil - compacted, target rate 40.0 μg/seed, Table 23
# [11] = Heavy soil - loose, target rate 40.0 μg/seed, Table 22
# [12] = Light soil - Compacted, target rate 40.0 μg/seed, Table 22
# [13] = Light soil - Loose, target rate 1.0 μg/seed, Table 24
# [14] = Light soil - Loose, target rate 10.0 μg/seed, Table 24
# [15] = Light soil - Loose, target rate 40.0 μg/seed, Table 24
# [16] = Light soil - compacted, target rate 1.0 μg/seed, Table 24
# [17] = Light soil - compacted, target rate 10.0 μg/seed, Table 24
# [18] = Light soil - compacted, target rate 40.0 μg/seed, Table 24
smiles,measurement,setting,value
C=C1C[C@]23C[C@H]1CC[C@H]2[C@]1(C)CCC[C@@](C)(C(=O)O)[C@H]1[C@@H]3C(=O)O [GA12],Significant Visual Observations on Line A3237,[1],Short plants
same,Count (emergence),[2]; [5],36.0 a
same,Height (total plant height),[2]; [5],4.7e-15 g·cm
same,Count (emergence),[2]; [6],26.7 b-c
same,Height (total plant height),[2]; [6],4.0 g·cm
same,Count (emergence),[2]; [7],33.0 ab
same,Height (total plant height),[2]; [7],4.3 g·cm
same,Count (emergence),[2]; [8],17.0 a
same,Height (total plant height),[2]; [8],4.3 cde cm
same,Count (emergence),[2]; [9],12.3 abc
same,Height (total plant height),[2]; [9],3.7 e cm
same,Count (emergence),[2]; [10],13.7 abc
same,Height (total plant height),[2]; [10],4.0 de cm
same,Count (emergence),[2]; [11],33 ab
same,Height (total plant height),[2]; [11],4.3 g·cm
same,Count (emergence),[2]; [12],41 a
same,Height (total plant height),[2]; [12],4.3 g·cm
same,Count (emergence),[2]; [13],43.7 abc
same,Height (total plant height),[2]; [13],4.0 hi cm
same,Count (emergence),[2]; [14],47.7 a
same,Height (total plant height),[2]; [14],3.7 i cm
same,Count (emergence),[2]; [15],44.0 abc
same,Height (total plant height),[2]; [15],4.0 hi cm
same,Count (emergence),[2]; [16],39.3 ab
same,Height (total plant height),[2]; [16],4.3 g·cm
same,Count (emergence),[2]; [17],41.7 a
same,Height (total plant height),[2]; [17],4.0 g·cm
same,Count (emergence),[2]; [18],41.0 a
same,Height (total plant height),[2]; [18],4.3 g·cm
same,plant height dose/response in wild-type line A4922 (FIG. 40),"[2]; ten days after planting, compacted soil",inhibited plant height
same,"A4922 Height, cm, Heavy soil",[3]; 0.1 μg compound per seed,5.3 fg·cm
same,"A4922 Height, cm, Light soil",[3]; 0.1 μg compound per seed,5.7 f-i cm
same,"No. A4922 Emerged, Heavy soil",[3]; 0.1 μg compound per seed,24.3 g·days
same,"No. A4922 Emerged, Light soil",[3]; 0.1 μg compound per seed,45.7 c-h
same,"A4922 Height, cm, Heavy soil",[3]; 1 μg compound per seed,5.7 efg cm
same,"A4922 Height, cm, Light soil",[3]; 1 μg compound per seed,5.0 g-i cm
same,"No. A4922 Emerged, Heavy soil",[3]; 1 μg compound per seed,48.0 ab
same,"No. A4922 Emerged, Light soil",[3]; 1 μg compound per seed,55.7 ab
same,"A4922 Height, cm, Heavy soil",[3]; 10 μg compound per seed,5.0 fgh cm
same,"A4922 Height, cm, Light soil",[3]; 10 μg compound per seed,3.7 hij cm
same,"No. A4922 Emerged, Heavy soil",[3]; 10 μg compound per seed,19.0 fg
same,"No. A4922 Emerged, Light soil",[3]; 10 μg compound per seed,46.3 c-g
same,"A4922 Height, cm, Heavy soil",[3]; 50 μg compound per seed,2.7 hi cm
same,"A4922 Height, cm, Light soil",[3]; 50 μg compound per seed,3.0 ij cm
same,"No. A4922 Emerged, Heavy soil",[3]; 50 μg compound per seed,40.0 bcd
same,"No. A4922 Emerged, Light soil",[3]; 50 μg compound per seed,51.3 bcd
same,"A4922 Height, cm, Heavy soil",[3]; 100 μg compound per seed,2.3 i cm
same,"A4922 Height, cm, Light soil",[3]; 100 μg compound per seed,2.7 J·cm
same,"No. A4922 Emerged, Heavy soil",[3]; 100 μg compound per seed,38.7 bcd
same,"No. A4922 Emerged, Light soil",[3]; 100 μg compound per seed,53.0 bc
same,Count (emergence),[4]; [5],36.0 ab
same,Dwarfs (number of dwarfs not rescued),[4]; [5],10.0 a
same,Count (emergence),[4]; [6],35.3 abc
same,Dwarfs (number of dwarfs not rescued),[4]; [6],7.0 b
same,Count (emergence),[4]; [7],35.3 abc
same,Dwarfs (number of dwarfs not rescued),[4]; [7],3.3 c
same,Count (emergence),[4]; [8],18.7 ab
same,Dwarfs (number of dwarfs not rescued),[4]; [8],4.0 a
same,Count (emergence),[4]; [9],13.0 b-e
same,Dwarfs (number of dwarfs not rescued),[4]; [9],2.0 b
same,Count (emergence),[4]; [10],22.7 a
same,Dwarfs (number of dwarfs not rescued),[4]; [10],1.3 bc
same,Count (emergence),[4]; [11],35 abc
same,Dwarfs (number of dwarfs not rescued),[4]; [11],3.3 c
same,Count (emergence),[4]; [12],42 a
same,Dwarfs (number of dwarfs not rescued),[4]; [12],3.7 bc
same,Count (emergence),[4]; [13],46.3 a
same,Dwarfs (number not rescued),[4]; [13],17.3 b
same,Count (emergence),[4]; [14],48.3 a
same,Dwarfs (number not rescued),[4]; [14],11.3 c
same,Count (emergence),[4]; [15],46.0 a
same,Dwarfs (number not rescued),[4]; [15],7.7
same,Count (emergence),[4]; [16],40.3 a
same,Dwarfs (number not rescued),[4]; [16],8.3 a
same,Count (emergence),[4]; [17],40.0 ab
same,Dwarfs (number not rescued),[4]; [17],4.3 b
same,Count (emergence),[4]; [18],42.0 a
same,Dwarfs (number not rescued),[4]; [18],3.7 bc
same,rank of potential for rescuing GA-deficient dwarf soybeans without decreasing emergence,[4]; based on the last two field trials,GA9>GA5>GA3-3-acetate>GA3>GA12
